We go through one molecule from patent US11213546B2, “Methods to mobilize tissue resident cells for adoptive t cell therapy” (Emory University, priority 2017, dated 2022).

The test concerns circulating CD8+ TSP cells and CD34+ SP+ HSCs. The conditions noted are these: human peripheral blood. The source says: Peripheral blood mononuclear cells (PBMCs) from healthy donors were isolated from buffy coats purchased from New York Blood Center. Gut T cells were obtained from uninvolved intestine in patients undergoing surgery for diverticular disease or gut biopsies. Bone marrow aspirates were obtained from patients with cancer undergoing diagnostic bone marrow biopsies. In some patients, blood samples were collected before and after stem cell mobilization protocol with plerixafor. […] The cells were then washed in ice-cold Hoechst wash buffer and analyzed with BD LSR-II containing UV laser.

As to `c1cc(CN2CCCNCCNCCCNCC2)ccc1CN1CCCNCCNCCCNCC1` [plerixafor, Plerixafor], the “circulating CD8+ TSP cells” value (baseline vs after mobilization, within 24 hours of injection, n=6) was “marked increase”. Also, the “mobilization of CD34+ SP+ HSCs” value (concurrent with the CD8+ TSP increase) was “mobilization”.
